Patent US12129229B2, “Amarouciaxanthin A esters and uses thereof” (GAT THERAPEUTICS, S.L., priority 2021, dated 2024)

How the values were obtained:
rodent models = conditions: Biochem Biophys Res Commun, 2020, 528, 305-310; cited from earlier work
[1] = ACX-Ac oral kinetic assay: plasma levels after intragastric administration; assay type: in vivo, mice Hsd:ICR (CD-1); conditions: female mice
Procedure: Immunocompetent mice from the strain Hsd:ICR (CD-1) (females, 6-7 weeks old from ENVIGO), were housed under sterile conditions at a constant temperature of 20-22° C. and relative humidity (45-65%) under daily cycles of light/darkness (12 hours). Sterilized water and food were available ad libitum.
Amarouciaxanthin A acetate (ACX-Ac) was dissolved at 1 mg/mL in a suitable vehicle and sterilized by filtration. Animals were weighted before the assay to determine the appropriate dispensing volume at 10 mL/kg. Formulation was administered once, intragastrically, at 10 mg/kg. Blood was collected at different time points, as stated in Table 1. It was extracted either through the facial vein or by intracardiac puncture (end points), on recipients containing 5 μL of 0.5 M EDTA.
Blood samples were analyzed by HPLC-MS/MS following proprietary analytical methods and the concentration of ACX in each sample was determined. A noncompartmental pharmacokinetic analysis was carried out using individual plasma concentrations versus sampling times by means of the PKPlus® software version 2.0 (Simulations Plus, Lancaster, CA 93534, USA).

| Compound | effect on hepatic oxidative stress, inflammation, and fibrosis (rodent models) | ACX-Ac in plasma samples ([1]; ACX-Ac 10 mg/kg once intragastrically, HPLC-MS/MS, 2 min to 72 h) | area under the concentration-time curve (AUCt) of ACX ([1]; analyte ACX after ACX-Ac 10 mg/kg once intragastrically, noncompartmental analysis) | Cmax ([1]; analyte ACX after ACX-Ac 10 mg/kg once intragastrically, noncompartmental analysis, read-out: maximum observed plasma concentration (Cmax) of ACX) |
| --- | --- | --- | --- | --- |
| CC1=CC(=O)CC(C)(C)[C@@]1(O)CC(=O)/C(C)=C/C=C/C(C)=C/C=C/C=C(C)/C=C/C=C(\C)C=C=C1C(C)(C)C[C@H](O)C[C@@]1(C)O [ACX, Amarouciaxanthin A] | significantly inhibit hepatic oxidative stress, inflammation, and fibrosis |  |  |  |
| Amarouciaxanthin A acetate [ACX-Ac] |  | not detected | 80.59 µM·h | 9.35 µM |
